Results published in the supplement of paper PMC10307832.

Legend:
Experiment in all cases: relative viability (nuclei count vs DMSO), 5 days (fraction); higher = more cells survive
[1] = compound: Cn1cnc2c(F)c(Nc3ccc(Br)cc3Cl)c(C(=O)NOCCO)cc21 [Selumetinib] + CCNC(=O)c1noc(-c2cc(C(C)C)c(O)cc2O)c1-c1ccc(CN2CCOCC2)cc1 [Luminespib] (partner 0.01 µM)
Summary of the method: (§1)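 Lung cancer cell lines in 1536-well plates were dosed by pin tool the day after seeding, either with one drug alone or with a fixed anchor-drug dose plus five library-drug doses (not always all listed) in √10 steps. After 5 days, cells were fixed and their nuclei stained in one step (final 0.05% Triton X-100, 1% formaldehyde, 1 ug/ml Hoechst), then counted on 4× images. Relative viability is the nuclei count in treated wells divided by that in vehicle wells. Values are medians of duplicate plates.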

[2] = compound: CC1(C)CCC(CN2CCN(c3ccc(C(=O)NS(=O)(=O)c4ccc(NCC5CCOCC5)c([N+](=O)[O-])c4)c(Oc4cnc5[nH]ccc5c4)c3)CC2)=C(c2ccc(Cl)cc2)C1 [Venetoclax] + C[C@]1(O)C[C@@H](c2nc(-c3ccc4ccc(-c5ccccc5)nc4c3)c3c(N)nccn32)C1 [Linsitinib] (partner 1 µM)
Summary of the method: as §1

[3] = compound: CC1(C)CCC(CN2CCN(c3ccc(C(=O)NS(=O)(=O)c4ccc(NCC5CCOCC5)c([N+](=O)[O-])c4)c(Oc4cnc5[nH]ccc5c4)c3)CC2)=C(c2ccc(Cl)cc2)C1 [Venetoclax] + COc1cccc2cc(-c3nc([C@H]4CC[C@H](C(=O)O)CC4)n4ncnc(N)c34)[nH]c12 [OSI-027] (partner 0.5 µM)
Summary of the method: as §1

[4] = compound: CC1(C)CCC(CN2CCN(c3ccc(C(=O)NS(=O)(=O)c4ccc(NCC5CCOCC5)c([N+](=O)[O-])c4)c(Oc4cnc5[nH]ccc5c4)c3)CC2)=C(c2ccc(Cl)cc2)C1 [Venetoclax] + N=C(N)NC(=N)NCCc1ccccc1 [Phenformin] (partner 250 µM)
Summary of the method: as §1

| Cell Line | relative viability ([1]; first compound 0.02 µM) | relative viability ([1]; first compound 0.06325 µM) | relative viability ([1]; first compound 0.2 µM) | relative viability ([1]; first compound 0.6325 µM) | relative viability ([2]; first compound 0.01 µM) | relative viability ([2]; first compound 0.03162 µM) | relative viability ([2]; first compound 0.1 µM) | relative viability ([2]; first compound 0.3162 µM) | relative viability ([2]; first compound 1 µM) | relative viability ([3]; first compound 0.01 µM) | relative viability ([3]; first compound 0.03162 µM) | relative viability ([3]; first compound 0.1 µM) | relative viability ([3]; first compound 0.3162 µM) | relative viability ([3]; first compound 1 µM) | relative viability ([4]; first compound 0.01 µM) | relative viability ([4]; first compound 0.03162 µM) | relative viability ([4]; first compound 0.1 µM) | relative viability ([4]; first compound 0.3162 µM) | relative viability ([4]; first compound 1 µM) |
| --- | --- | --- | --- | --- | --- | --- | --- | --- | --- | --- | --- | --- | --- | --- | --- | --- | --- | --- | --- |
| 201T | 1.08 | 1.03 | 0.962 | 0.906 | 0.986 | 1.01 | 1.03 | 1.03 | 1.01 | 0.728 | 0.724 | 0.687 | 0.774 | 0.628 | 0.451 | 0.433 | 0.456 | 0.466 | 0.411 |
| NCI-H23 | 0.24 | 0.215 | 0.188 | 0.175 | 0.646 | 0.648 | 0.527 | 0.467 | 0.533 | 0.592 | 0.625 | 0.525 | 0.683 | 0.439 | 0.762 | 0.751 | 0.815 | 0.8 | 0.719 |
| CAL-12T | 0.322 | 0.365 | 0.284 | 0.362 | 0.728 | 0.931 | 0.685 | 0.776 | 0.691 | 0.641 | 0.693 | 0.639 | 0.549 | 0.413 | 0.543 | 0.575 | 0.567 | 0.555 | 0.539 |
| NCI-H647 | 0.195 | 0.141 | 0.125 | 0.136 | 0.996 | 1.15 | – | 1.4 | 1.02 | 0.69 | 0.769 | 0.625 | 0.589 | 0.509 | 0.543 | 0.622 | 0.443 | 0.481 | 0.377 |
| NCI-H1915 | 0.887 | 0.744 | 0.587 | 0.373 | 1.02 | 1.11 | 0.982 | 1.07 | 1.03 | 0.587 | 0.624 | 0.596 | 0.612 | 0.586 | 0.362 | 0.385 | 0.354 | 0.376 | 0.375 |
| NCI-H2087 | 0.167 | 0.193 | 0.148 | 0.147 | 1.01 | 1.13 | 1.01 | 0.983 | 0.945 | 0.534 | 0.735 | 0.456 | 0.539 | 0.435 | 0.461 | 0.471 | 0.387 | 0.407 | 0.461 |
| NCI-H2085 | 0.527 | 0.402 | 0.376 | 0.326 | 0.881 | 0.782 | 0.853 | 0.909 | 0.853 | 0.838 | 0.769 | 0.707 | 0.746 | 0.53 | 0.635 | 0.762 | 0.688 | 0.766 | 0.655 |
